Measurements: US5145855A, “6- and 7-deoxyforskolin and derivatives thereof” (Hoechst Roussel Pharmaceuticals, Inc., priority 1991, dated 1992)
Converted amounts (≈) assume the structure as drawn.

Test system: isolated guinea pig left atrium
Test: electrically-driven guinea pig left atrium contractile force assay (positive inotropic effect)
Settings: for Ionotropic Activity (% Change of Contractile Force): at the concentration of the same line (extrapolated ED50: A 0.04, B 0.073 μg/ml)
Procedure: The forskolin derivatives of the present invention are useful in the treatment of cardiac failure by virtue of their ability to elicit a positive inotropic effect as determined in the isolated guinea pig atria contractile force assay. The electrically-driven guinea pig left atrium assay is performed as follows: Male guinea pigs weighing 200-300 grams are stunned with a blow to the back of the head. The heart is rapidly removed and placed in a petri dish containing Krebs solution. The ventricle is separated from the atria, the atria are sectioned in the right and left atria, and double-O silk ligatures are tied to the apex of the left atrium. The atrium is fixed to a pair of platinum plate electrodes and suspended in a 20-ml tissue bath containing Kreb's solution aerated with 95% oxygen-5% carbon dioxide at 37° C. One end of the atrium is fixed to a hook in the electrode and the other end is connected to a Grass FTO3 force displacement transducer. Resting tension and stabilization time are the same as described above. The atrium is stimulated at 3 Hz, 0.5 msec duration at supramaximal voltage (constant current) via a Grass S88 stimulator and constant current unit. Force of contraction is continuously displaced on a Gould recorder. Test drug is prepared and is added to the tissue baths. Change in contractile force from baseline is determined for each concentration, and the change in contractile force (g) is plotted against accumulated drug concentration (μg/ml) The activity of the test drug, i.e., the increase in contractile force (g) from the stabilized force expressed as the percentage change at a given concentration is determined graphically, as is the ED50 -value, i.e., the extrapolated dose (μg/ml) which increases the contractile force by 50% over the stabilized rate.

Row | SMILES | Ionotropic Activity (% Change of Contractile Force) | Extrapolated ED50 value (concentration which increases the contractile force by 50%) (isolated left atrium, stimulated at 3 Hz, 37° C., Krebs solution) | EC50 (Cavia porcellus, isolated left atrium, stimulated at 3 Hz, 37° C., Krebs solution, read-out: Extrapolated ED50 value (concentration which increases the contractile force by 50%))
1 | C=CC1(C)CC(=O)C2(O)C(C)(O1)C(Oc1ncccn1)CC1C(C)(C)CCC(O)C12C.Cl (stereo not shown) [A, 6-Deoxy-7-desacetyl-7-(pyrimidin-2-yl)forskolin hydrochloride] | 50% | 0.04 µg/mL | 
2 | C=C[C@@]1(C)CC(=O)[C@]2(O)[C@@]3(C)[C@@H](O)CCC(C)(C)[C@@H]3[C@H](O)[C@H](OC(C)=O)[C@@]2(C)O1 [B, Forskolin] | 50% |  | 0.073 µg/mL (≈ 0.178 µM)
